Laboratory results from ChEMBL document CHEMBL6109139, “Rational Design of the First Dual Agonist at Trace Amine-Associated Receptor 1 and 5-HT2C Receptors Based on Binding Pocket Similarity for the Treatment of Schizophrenia and Alzheimer's Disease-Related Psychosis” (J Med Chem, 2025).
Calls of active or inactive are those of the source. No cut-off for these calls is given here.

What was measured:
[1] = Plasma protein binding in dog assessed as unbound fraction by LC-MS/MS analysis; type: ADME, cell-free, Canis lupus familiaris
[2] = Inhibition of CYP2D6 in human liver microsomes in presence of NADPH by LC-MS/MS analysis; type: ADME, Microsome
[3] = Drug concentration in male Sprague-Dawley rat brain at 5 mg/kg, IG measured after 6 hrs by LC-MS/MS analysis; type: ADME, organism-based; conditions: in vivo, po
[4] = system: Mus musculus; assay: Antipsychotic activity in amyloid beta(1 to 42) induced cognitive impairment in mouse model assessed as reduction in exploration time at 1 mg/kg, IG measured after 24 hrs by novel object recognition test; type: functional, organism-based
[5] = molecular target: Trace amine-associated receptor 1 (Mus musculus) (UniProt Q923Y8); assay: Agonist activity at mouse TAAR1 by measuring maximum efficacy relative to control; type: functional; conditions: filed as agonist
[6] = molecular target: 5-hydroxytryptamine receptor 2C (Mus musculus, UniProt P34968); assay: Agonist activity at mouse 5-HT2CR; type: functional
[7] = molecular target: 5-hydroxytryptamine receptor 2C (Mus musculus) (UniProt P34968); assay: Agonist activity at mouse 5-HT2CR by measuring maximum efficacy relative to control; type: functional; conditions: filed as agonist
[8] = molecular target: D(2) dopamine receptor (Homo sapiens, UniProt P14416); assay: Antagonist activity at human D2L receptor expressed in Flp-In-CHO cells; type: cell-based
[9] = molecular target: Alpha-1A adrenergic receptor (Homo sapiens) (UniProt P35348); assay: Binding affinity to alpha 1A (unknown origin) at 10 uM by radioligand binding assay relative to control
[10] = molecular target: Prostaglandin G/H synthase 2 (Homo sapiens) (UniProt P35354); assay: Binding affinity to COX2 (unknown origin) at 10 uM by radioligand binding assay relative to control
[11] = molecular target: Histamine H1 receptor (Homo sapiens) (UniProt P35367); assay: Binding affinity to H1 receptor (unknown origin) at 10 uM by radioligand binding assay relative to control
[12] = molecular target: Muscarinic acetylcholine receptor M3 (Homo sapiens) (UniProt P20309); assay: Binding affinity to M3 receptor (unknown origin) at 10 uM by radioligand binding assay relative to control
[13] = molecular target: Delta-type opioid receptor (Homo sapiens) (UniProt P41143); assay: Binding affinity to op-delta receptor (unknown origin) at 10 uM by radioligand binding assay relative to control
[14] = molecular target: Vasopressin V1a receptor (Homo sapiens) (UniProt P37288); assay: Binding affinity to V1a receptor (unknown origin) at 10 uM by radioligand binding assay relative to control
[15] = molecular target: Voltage-gated inwardly rectifying potassium channel KCNH2 (Homo sapiens, UniProt Q12809); assay: Inhibition of human ERG expressed in CHO cells by whole cell patch clamp technique; type: toxicity, cell-based
[16] = Mutagenicity in Salmonella typhimurium TA1535 by Ames test; type: toxicity; conditions: salmonella enterica subsp. enterica serovar typhimurium
[17] = organism: Homo sapiens; assay: Binding affinity to CCKa (unknown origin) at 10 uM by radioligand binding assay relative to control
[18] = Cardiotoxicity in conscious cynomolgus monkey assessed as arrhythmia at 3.125 to 12.5 mg/kg, IG measured within 24 hrs; type: toxicity, organism-based, Macaca fascicularis; conditions: in vivo, po, dose 3.125-12.5 mg/kg
[19] = Cardiotoxicity in conscious cynomolgus monkey assessed as waveform abnormalities in leas-II ECG at 3.125 to 12.5 mg/kg, IG measured within 24 hrs by EcgAUTO analysis; type: toxicity, organism-based, Macaca fascicularis; conditions: in vivo, po, dose 3.125-12.5 mg/kg
[20] = Cardiotoxicity in conscious cynomolgus monkey assessed as decrease in body temperature at 3.125 to 12.5 mg/kg, IG by digital thermometer analysis; type: toxicity, organism-based, Macaca fascicularis; conditions: in vivo, po, dose 3.125-12.5 mg/kg
[21] = Toxicity in Sprague-Dawley rat assessed as good general health at 2.5 to 7.5 mg/kg, po administered once daily for 4 weeks; type: organism-based; conditions: in vivo, 672 h, dose 2.5-7.5 mg/kg
[22] = Toxicity in Sprague-Dawley rat assessed as normal spontaneous movement at 2.5 to 7.5 mg/kg, po administered once daily for 4 weeks; type: organism-based; conditions: in vivo, 672 h, dose 2.5-7.5 mg/kg
[23] = Toxicity in Sprague-Dawley rat assessed as good general health at 2.5 to 7.5 mg/kg, po administered once daily for 4 weeks and measured after 4 weeks; type: organism-based; conditions: in vivo, 1344 h, dose 2.5-7.5 mg/kg, time 8 weeks
[24] = Toxicity in female Sprague-Dawley rat assessed as suppression of food consumption at 7.5 mg/kg, po administered once daily for 4 weeks and measured weekly twice; type: organism-based; conditions: in vivo, 672 h
[25] = Toxicity in male Sprague-Dawley rat assessed as piloerection at 7.5 mg/kg, po administered once daily for 4 weeks; type: organism-based; conditions: in vivo, 672 h
[26] = Toxicity in female Sprague-Dawley rat assessed as slow respiration at 7.5 mg/kg, po administered once daily for 4 weeks; type: organism-based; conditions: in vivo, 672 h
[27] = Toxicity in male Sprague-Dawley rat assessed as change in urinalysis at 2.5 to 7.5 mg/kg, po administered once daily for 4 weeks and measured after 4 weeks; type: organism-based; conditions: in vivo, 1344 h, dose 2.5-7.5 mg/kg, time 8 weeks
[28] = Toxicity in male Sprague-Dawley rat assessed as minimal corneal neovascularization at 7.5 mg/kg, po administered once daily for 4 weeks; type: organism-based; conditions: in vivo, 672 h
[29] = Toxicity in male Sprague-Dawley rat assessed as corneal epithelial degeneration at 7.5 mg/kg, po administered once daily for 4 weeks; type: organism-based; conditions: in vivo, 672 h
[30] = Toxicity in male Beagle dog assessed as change in body weight at 0.75 to 2.5 mg/kg, IG administered once daily for 4 weeks and measured after 4 weeks; type: organism-based, Canis lupus familiaris; conditions: in vivo, po, 1344 h, dose 0.75-2.5 mg/kg, time 8 weeks
[31] = Toxicity in female Beagle dog assessed as change in body temperature at 0.75 to 2.5 mg/kg, IG administered once daily for 4 weeks and measured after 4 weeks; type: organism-based, Canis lupus familiaris; conditions: in vivo, po, 1344 h, dose 0.75-2.5 mg/kg, time 8 weeks
[32] = Toxicity in male Beagle dog assessed as change in clinical chemistry at 0.75 to 2.5 mg/kg, IG administered once daily for 4 weeks and measured after 4 weeks; type: organism-based, Canis lupus familiaris; conditions: in vivo, po, 1344 h, dose 0.75-2.5 mg/kg, time 8 weeks
[33] = Toxicity in female Beagle dog assessed as change in clinical chemistry at 0.75 to 2.5 mg/kg, IG administered once daily for 4 weeks and measured after 4 weeks; type: organism-based, Canis lupus familiaris; conditions: in vivo, po, 1344 h, dose 0.75-2.5 mg/kg, time 8 weeks
[34] = Toxicity in male Beagle dog assessed as change in urinalysis at 0.75 to 2.5 mg/kg, IG administered once daily for 4 weeks and measured after 4 weeks; type: organism-based, Canis lupus familiaris; conditions: in vivo, po, 1344 h, dose 0.75-2.5 mg/kg, time 8 weeks
[35] = Toxicity in female Beagle dog assessed as change in gross necropsy at 0.75 to 2.5 mg/kg, IG administered once daily for 4 weeks and measured after 4 weeks; type: organism-based, Canis lupus familiaris; conditions: in vivo, po, 1344 h, dose 0.75-2.5 mg/kg, time 8 weeks
[36] = Toxicity in male Beagle dog assessed as somnolence at 2.5 mg/kg, IG administered once daily for 4 weeks and measured after 4 weeks; type: organism-based, Canis lupus familiaris; conditions: in vivo, po, 1344 h, time 8 weeks
[37] = Toxicity in male Beagle dog assessed as minimal decrease activity at 2.5 mg/kg, IG administered once daily for 4 weeks and measured after 4 weeks; type: organism-based, Canis lupus familiaris; conditions: in vivo, po, 1344 h, time 8 weeks

Sequence of Alpha-1A adrenergic receptor (Homo sapiens) (P35348 whole entry): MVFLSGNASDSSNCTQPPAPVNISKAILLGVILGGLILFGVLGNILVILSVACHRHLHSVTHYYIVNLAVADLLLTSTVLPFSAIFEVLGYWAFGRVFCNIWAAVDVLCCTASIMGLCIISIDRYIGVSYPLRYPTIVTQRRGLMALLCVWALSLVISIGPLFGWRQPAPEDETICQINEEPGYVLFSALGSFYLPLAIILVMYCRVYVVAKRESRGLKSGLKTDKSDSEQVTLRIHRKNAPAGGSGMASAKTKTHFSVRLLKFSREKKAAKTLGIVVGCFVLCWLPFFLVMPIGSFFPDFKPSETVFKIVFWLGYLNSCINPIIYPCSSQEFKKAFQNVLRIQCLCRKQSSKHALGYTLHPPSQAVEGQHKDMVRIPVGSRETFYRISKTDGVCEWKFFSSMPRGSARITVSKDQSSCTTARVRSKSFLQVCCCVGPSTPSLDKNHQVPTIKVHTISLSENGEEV
Sequence of Histamine H1 receptor (Homo sapiens) (P35367 whole entry): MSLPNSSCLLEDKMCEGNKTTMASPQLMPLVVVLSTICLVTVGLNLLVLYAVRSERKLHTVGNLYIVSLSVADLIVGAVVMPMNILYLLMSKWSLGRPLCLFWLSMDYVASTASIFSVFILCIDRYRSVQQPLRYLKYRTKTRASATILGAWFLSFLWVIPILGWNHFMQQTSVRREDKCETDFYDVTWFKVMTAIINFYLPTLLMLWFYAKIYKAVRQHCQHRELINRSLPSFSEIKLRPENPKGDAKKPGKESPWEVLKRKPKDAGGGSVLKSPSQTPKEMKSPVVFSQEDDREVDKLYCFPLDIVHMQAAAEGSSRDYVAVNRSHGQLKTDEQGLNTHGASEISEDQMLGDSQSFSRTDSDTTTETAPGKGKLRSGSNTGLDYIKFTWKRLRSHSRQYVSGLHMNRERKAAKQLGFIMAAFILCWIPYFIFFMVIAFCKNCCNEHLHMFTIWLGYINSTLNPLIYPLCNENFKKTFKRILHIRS
Sequence of Voltage-gated inwardly rectifying potassium channel KCNH2 (Q12809 whole entry): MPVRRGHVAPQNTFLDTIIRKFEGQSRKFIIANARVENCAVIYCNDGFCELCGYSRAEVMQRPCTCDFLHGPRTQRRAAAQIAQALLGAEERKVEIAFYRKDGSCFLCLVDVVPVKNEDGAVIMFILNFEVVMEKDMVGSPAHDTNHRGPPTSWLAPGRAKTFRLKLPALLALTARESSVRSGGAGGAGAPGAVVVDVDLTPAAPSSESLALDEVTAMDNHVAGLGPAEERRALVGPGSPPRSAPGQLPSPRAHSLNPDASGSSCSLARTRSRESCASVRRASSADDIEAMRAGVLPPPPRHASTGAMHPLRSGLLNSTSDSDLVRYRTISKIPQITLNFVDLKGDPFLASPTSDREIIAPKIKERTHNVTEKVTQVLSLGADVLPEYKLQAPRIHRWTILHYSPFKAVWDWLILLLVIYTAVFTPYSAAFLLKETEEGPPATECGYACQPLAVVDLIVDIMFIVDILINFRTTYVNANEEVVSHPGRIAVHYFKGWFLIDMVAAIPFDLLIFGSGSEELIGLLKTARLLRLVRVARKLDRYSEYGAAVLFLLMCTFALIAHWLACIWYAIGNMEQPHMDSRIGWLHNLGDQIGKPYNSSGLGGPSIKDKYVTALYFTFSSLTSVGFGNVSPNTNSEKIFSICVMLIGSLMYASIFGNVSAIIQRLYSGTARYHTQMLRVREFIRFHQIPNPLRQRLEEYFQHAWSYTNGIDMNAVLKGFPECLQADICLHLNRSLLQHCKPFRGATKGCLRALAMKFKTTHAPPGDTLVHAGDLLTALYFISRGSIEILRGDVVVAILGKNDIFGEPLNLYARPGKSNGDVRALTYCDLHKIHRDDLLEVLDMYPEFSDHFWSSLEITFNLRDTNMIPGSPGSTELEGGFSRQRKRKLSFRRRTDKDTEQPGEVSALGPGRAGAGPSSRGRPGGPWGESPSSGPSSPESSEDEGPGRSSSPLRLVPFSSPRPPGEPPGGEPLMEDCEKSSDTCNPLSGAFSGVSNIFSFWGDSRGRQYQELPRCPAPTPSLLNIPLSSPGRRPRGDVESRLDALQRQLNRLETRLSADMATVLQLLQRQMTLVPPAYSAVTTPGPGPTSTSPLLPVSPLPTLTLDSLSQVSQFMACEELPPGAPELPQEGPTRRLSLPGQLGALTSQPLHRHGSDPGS
Sequence of Prostaglandin G/H synthase 2 (Homo sapiens) (P35354 whole entry): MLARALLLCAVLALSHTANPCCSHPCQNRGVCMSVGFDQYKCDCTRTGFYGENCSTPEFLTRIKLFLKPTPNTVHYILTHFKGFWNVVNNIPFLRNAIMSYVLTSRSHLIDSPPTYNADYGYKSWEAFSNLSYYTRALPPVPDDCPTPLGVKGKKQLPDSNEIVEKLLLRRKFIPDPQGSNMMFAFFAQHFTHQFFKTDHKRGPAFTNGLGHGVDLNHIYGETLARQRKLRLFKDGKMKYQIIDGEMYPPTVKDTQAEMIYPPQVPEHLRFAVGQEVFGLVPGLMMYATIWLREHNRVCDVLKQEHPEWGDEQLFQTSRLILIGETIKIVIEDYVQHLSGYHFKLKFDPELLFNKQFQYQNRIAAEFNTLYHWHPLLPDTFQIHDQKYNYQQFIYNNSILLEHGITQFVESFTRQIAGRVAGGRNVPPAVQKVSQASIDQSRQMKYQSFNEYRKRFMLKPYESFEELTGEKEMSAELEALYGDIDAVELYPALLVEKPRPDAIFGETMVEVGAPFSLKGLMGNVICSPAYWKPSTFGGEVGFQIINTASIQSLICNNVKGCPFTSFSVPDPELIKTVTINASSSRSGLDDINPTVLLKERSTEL
Sequence of D(2) dopamine receptor (P14416 whole entry): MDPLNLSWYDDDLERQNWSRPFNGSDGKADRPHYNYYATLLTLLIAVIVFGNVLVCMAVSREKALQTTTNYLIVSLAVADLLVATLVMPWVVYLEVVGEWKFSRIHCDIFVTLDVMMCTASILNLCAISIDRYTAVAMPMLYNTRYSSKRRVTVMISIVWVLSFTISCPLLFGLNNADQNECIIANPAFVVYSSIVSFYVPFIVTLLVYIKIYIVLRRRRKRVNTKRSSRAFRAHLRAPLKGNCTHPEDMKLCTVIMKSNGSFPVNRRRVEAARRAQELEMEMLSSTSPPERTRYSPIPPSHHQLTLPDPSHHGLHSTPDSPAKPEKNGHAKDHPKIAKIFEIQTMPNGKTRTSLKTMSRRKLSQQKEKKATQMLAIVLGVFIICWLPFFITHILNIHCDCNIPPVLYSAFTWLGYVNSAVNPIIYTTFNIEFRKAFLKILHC
Sequence of Delta-type opioid receptor (Homo sapiens) (P41143 whole entry): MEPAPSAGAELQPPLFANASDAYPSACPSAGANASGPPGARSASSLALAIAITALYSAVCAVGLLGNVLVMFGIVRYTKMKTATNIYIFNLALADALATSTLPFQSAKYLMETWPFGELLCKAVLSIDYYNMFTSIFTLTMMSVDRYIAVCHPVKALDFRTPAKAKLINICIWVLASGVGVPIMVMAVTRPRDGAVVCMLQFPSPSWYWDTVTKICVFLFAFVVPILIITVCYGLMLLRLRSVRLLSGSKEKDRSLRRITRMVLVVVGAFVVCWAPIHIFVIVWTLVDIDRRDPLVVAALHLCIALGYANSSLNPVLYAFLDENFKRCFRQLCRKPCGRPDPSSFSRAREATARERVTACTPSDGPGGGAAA
Sequence of Vasopressin V1a receptor (Homo sapiens) (P37288 whole entry, looked up): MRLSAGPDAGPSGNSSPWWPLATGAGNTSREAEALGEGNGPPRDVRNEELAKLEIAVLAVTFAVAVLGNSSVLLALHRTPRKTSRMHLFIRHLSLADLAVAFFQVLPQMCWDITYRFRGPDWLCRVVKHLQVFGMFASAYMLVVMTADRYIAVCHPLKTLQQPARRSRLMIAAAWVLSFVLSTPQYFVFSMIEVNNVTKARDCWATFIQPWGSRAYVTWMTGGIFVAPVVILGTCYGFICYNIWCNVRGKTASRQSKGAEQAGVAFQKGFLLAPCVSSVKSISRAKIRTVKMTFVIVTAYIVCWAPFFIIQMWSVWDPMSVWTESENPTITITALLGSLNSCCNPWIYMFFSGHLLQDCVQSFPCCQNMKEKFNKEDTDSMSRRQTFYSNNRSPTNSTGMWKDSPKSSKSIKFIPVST
Sequence of 5-hydroxytryptamine receptor 2C (Mus musculus) (P34968 whole entry): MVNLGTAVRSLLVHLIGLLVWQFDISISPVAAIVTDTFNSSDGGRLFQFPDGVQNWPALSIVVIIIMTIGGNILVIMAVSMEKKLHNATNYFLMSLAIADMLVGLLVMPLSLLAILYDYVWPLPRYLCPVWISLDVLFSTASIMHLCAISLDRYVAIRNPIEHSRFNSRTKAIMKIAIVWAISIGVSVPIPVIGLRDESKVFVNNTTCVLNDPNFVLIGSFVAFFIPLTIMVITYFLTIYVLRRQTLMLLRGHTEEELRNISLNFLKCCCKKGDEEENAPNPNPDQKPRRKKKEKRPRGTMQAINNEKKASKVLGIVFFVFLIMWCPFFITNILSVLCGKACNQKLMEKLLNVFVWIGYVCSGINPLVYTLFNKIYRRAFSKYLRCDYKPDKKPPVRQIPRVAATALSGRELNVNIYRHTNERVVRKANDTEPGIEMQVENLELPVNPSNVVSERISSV
Sequence of 5-hydroxytryptamine receptor 2C (P34968 whole entry): as above
Sequence of Trace amine-associated receptor 1 (Mus musculus) (Q923Y8 whole entry): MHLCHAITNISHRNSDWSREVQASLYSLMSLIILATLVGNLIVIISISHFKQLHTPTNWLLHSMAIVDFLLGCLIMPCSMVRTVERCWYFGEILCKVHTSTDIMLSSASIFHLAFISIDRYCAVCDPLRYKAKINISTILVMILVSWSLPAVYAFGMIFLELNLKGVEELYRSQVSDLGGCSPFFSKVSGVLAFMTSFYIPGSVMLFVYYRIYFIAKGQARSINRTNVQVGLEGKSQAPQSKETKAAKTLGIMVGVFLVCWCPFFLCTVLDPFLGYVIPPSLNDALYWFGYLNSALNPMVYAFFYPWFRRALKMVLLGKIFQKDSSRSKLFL

Structure (SMILES): c1cc2c(s1)[C@@H]1CNCCN1CC2
- fraction unbound [1]: 0.761
- IC50 [2]: > 50 µM
- Ct [3]: 3832 nmol/kg
- Activity [4]: Active
- Emax [5]: 100%
- EC50 [6]: 0.0744 µM
- Emax [7]: 103%
- IC50 [8]: > 100 µM
- Activity [9]: 55%
- Activity [10]: 48.5%
- Activity [11]: 6.65%
- Activity [12]: 23.8%
- Activity [13]: 15.4%
- Activity [14]: 6.93%
- IC50 [15]: > 30 µM
- Activity [16]: Non-toxic
- Activity [17]: 1.26%
- Activity [18]: Non-toxic
- Activity [19]: Non-toxic
- Activity [20]: Non-toxic
- Activity [21]: Non-toxic
- Activity [22]: Non-toxic
- Activity [23]: Non-toxic
- Activity [24]: Toxic
- Activity [25]: Toxic
- Activity [26]: Toxic
- Activity [27]: Non-toxic
- Activity [28]: Toxic
- Activity [29]: Toxic
- Activity [30]: Non-toxic
- Activity [31]: Non-toxic
- Activity [32]: Non-toxic
- Activity [33]: Non-toxic
- Activity [34]: Non-toxic
- Activity [35]: Non-toxic
- Activity [36]: Non-toxic
- Activity [37]: Non-toxic
